These results are taken from patent US6569878B1, “Substituted 4-amino-thiazol-2-yl compounds as cyclin-dependent kinase inhibitors” (Agouron Pharmaceuticals Inc., priority 1997, dated 2003).

One assay relates to Saos-2. As to the kind of experiment: Inhibition of cell growth, MTT assay, Saos-2. The conditions noted are these: Homo sapiens; Saos-2, MTT assay. It counts as cell-based. The method, boiled down:
(§1)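 Cells rested 4 h after plating, then exposed to graded compound concentrations in 0.5% (v/v) DMSO for four to six days (cell-type dependent) at 37° C, 5% CO2. Viability was read by MTT (0.2 mg/mL final, 4 h at 37° C), with DMSO-solubilized formazan measured at 540 nm.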
Background: Formazan colour is commonly taken as a measure of viable cells.

In assay [1] the target is T1, human CDK1 (cdc2) and cyclin B (Homo sapiens, UniProt P06493).
T1 construct: purchased New England Biolabs (Beverly Mass.)
As to the kind of experiment: Inhibition of CDK1(cdc2)/cyclin B histone H1 kinase activity. It counts as biochemical. The conditions noted are these: read-out: Ki CDK 1/B. Here is the method:
Cyclin-dependent kinase activity was measured by quantifying the enzyme-catalyzed, time-dependent incorporation of radioactive phosphate from [^32P]ATP or [^33P]ATP into a protein substrate. Unless noted otherwise, assays were performed in 96-well plates in a total volume of 50 μL, in the presence of 10 mM HEPES (N-[2-hydroxyethyl]piperazine-N′-[2-ethanesulfonic acid]) (pH 7.4), 10 mM MgCl2, 25 μM adenosine triphosphate (ATP), 1 mg/mL ovalbumin, 5 μg/mL leupeptin, 1 mM dithiothreitol, 10 mM β-glycerophosphate, 0.1 mM sodium vanadate, 1 mM sodium fluoride, 2.5 mM ethylene glycol-bis(β-aminoethyl ether)-N,N,N′N′-tetraacetic acid (EGTA), 2% (v/v) dimethylsulfoxide, and 0.03-0.4 μCi [^32/33P]ATP per reaction. Reactions were initiated with enzyme, incubated at 30° C., and terminated after 20 minutes by the addition of ethylenediaminetetraacetic acid (EDTA) to 250 mM. The phosphorylated substrate was then captured on a nitrocellulose or phosphocellulose membrane using a 96-well filtration manifold, and unincorporated radioactivity was removed by repeated washing with 0.85% phosphoric acid. Radioactivity was quantified by exposing the dried membranes to a phosphorimager.
Apparent Ki values were measured by assaying enzyme activity in the presence of different inhibitor compound concentrations and subtracting the background radioactivity measured in the absence of enzyme. The kinetic parameters (kcat, Km for ATP) were measured for each enzyme under the usual assay conditions by determining the dependence of initial rates on ATP concentration. Inhibition data were fit to an equation for competitive inhibition using Kaleidagraph (Synergy Software), or were fit to an equation for competitive tight-binding inhibition using the software KineTic (BioKin, Ltd.).
The complex of human CDK1 (cdc2) and cyclin B was purchased from New England Biolabs (Beverly Mass.). Alternatively, a CDK1/glutathione-S-transferase-cyclin B1 complex was purified using glutathione affinity chromatography from insect cells that had been co-infected with the corresponding baculovirus expression vectors. The assay was executed as described above at 30° C. using 2.5 units of cdc2/cyclin B, 10 μg Histone H1 protein, and 0.1-0.3 μCi [^32/33P]ATP per assay. Phosphorylated histone substrate was captured by microfiltration on a phosphocellulose P81 membrane and quantified using a phosphorimager as described above. Ki values were measured using the described curve-fitting programs.

For another assay, the target named is T2, CDK2/cyclin A (Homo sapiens, UniProt P24941).
T2 construct: made in house; host or cells: CDK2: insect cells (baculovirus); cyclin A: E. coli, then limited proteolysis
As to the kind of experiment: Inhibition of CDK2/cyclin A retinoblastoma kinase activity. It counts as biochemical. Particulars: read-out: Ki CDK 2/A. The method, boiled down:
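Baculovirus-expressed CDK2 with excess proteolyzed cyclin A (or purified complex), 150 nM or 5 nM, phosphorylating an Rb fragment with 25 μM [32/33P]ATP, pH 7.4, 30° C, 20 min. Filter-captured radioactivity by phosphorimager; apparent Ki from fits to competitive or tight-binding competitive inhibition using measured ATP Km.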

The next assay concerns HCT116. As to the kind of experiment: Inhibition of cell growth, MTT assay, HCT116. It counts as cell-based, human. Particulars: for IC50 / IC90: Homo sapiens, HCT-116. The method, boiled down: as §1
The test system of the next assay is U2-OS. As to the kind of experiment: Inhibition of cell growth, MTT assay, U2-OS. It counts as cell-based. Particulars: Homo sapiens, U2OS. An outline of the steps: as §1
Assay [2] deals with T3, complex of human CDK4 and cyclin D3 (Homo sapiens, UniProt P11802).
T3 construct: made in house; host or cells: insect cells, co-infected with baculovirus
As to the kind of experiment: Inhibition of CDK4/cyclin D retinoblastoma kinase activity (D-type cyclin is D3). It counts as biochemical. Particulars: superscript a: D-type cyclin is D3; apparent Ki; read-out: Ki CDK 4/D. An outline of the steps:
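Apparent Ki derived by fitting background-corrected activity to competitive (or, for tight binders, competitive tight-binding) equations with measured ATP Km. Rb phosphorylation by radiolabelled ATP was measured at 30°C, 20 min standard or 60 min at 5 nM complex for tight binders, via nitrocellulose capture and phosphorimager.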

Structures can show the parent of a compound that is named as a salt.

T3 sequence (P11802 whole entry): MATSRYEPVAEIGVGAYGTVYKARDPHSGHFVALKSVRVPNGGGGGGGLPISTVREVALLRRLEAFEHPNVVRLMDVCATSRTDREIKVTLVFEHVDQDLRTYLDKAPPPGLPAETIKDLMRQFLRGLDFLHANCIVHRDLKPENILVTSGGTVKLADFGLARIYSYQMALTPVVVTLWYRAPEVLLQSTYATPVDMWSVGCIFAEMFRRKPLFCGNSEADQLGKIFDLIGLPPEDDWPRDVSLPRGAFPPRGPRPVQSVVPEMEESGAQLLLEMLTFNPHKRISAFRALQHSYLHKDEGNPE
T3 sequence (P30281 whole entry partner): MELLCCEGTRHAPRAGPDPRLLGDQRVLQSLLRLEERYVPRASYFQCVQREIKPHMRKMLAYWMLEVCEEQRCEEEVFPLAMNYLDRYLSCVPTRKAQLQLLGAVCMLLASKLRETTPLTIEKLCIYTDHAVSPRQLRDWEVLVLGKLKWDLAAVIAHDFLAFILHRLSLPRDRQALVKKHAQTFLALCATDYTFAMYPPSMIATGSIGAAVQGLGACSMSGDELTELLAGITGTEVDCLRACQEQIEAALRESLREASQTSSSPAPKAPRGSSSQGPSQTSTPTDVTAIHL
T1 sequence (P06493 whole entry): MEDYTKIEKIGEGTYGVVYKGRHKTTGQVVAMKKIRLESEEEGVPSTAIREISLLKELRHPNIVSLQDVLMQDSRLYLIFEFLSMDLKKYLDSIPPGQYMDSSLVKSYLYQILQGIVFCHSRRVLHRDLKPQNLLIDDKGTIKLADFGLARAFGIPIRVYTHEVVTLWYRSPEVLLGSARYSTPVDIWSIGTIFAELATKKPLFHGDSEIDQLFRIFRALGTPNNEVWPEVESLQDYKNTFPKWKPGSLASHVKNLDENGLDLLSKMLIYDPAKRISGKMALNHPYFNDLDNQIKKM
T1 sequence (P14635 whole entry partner): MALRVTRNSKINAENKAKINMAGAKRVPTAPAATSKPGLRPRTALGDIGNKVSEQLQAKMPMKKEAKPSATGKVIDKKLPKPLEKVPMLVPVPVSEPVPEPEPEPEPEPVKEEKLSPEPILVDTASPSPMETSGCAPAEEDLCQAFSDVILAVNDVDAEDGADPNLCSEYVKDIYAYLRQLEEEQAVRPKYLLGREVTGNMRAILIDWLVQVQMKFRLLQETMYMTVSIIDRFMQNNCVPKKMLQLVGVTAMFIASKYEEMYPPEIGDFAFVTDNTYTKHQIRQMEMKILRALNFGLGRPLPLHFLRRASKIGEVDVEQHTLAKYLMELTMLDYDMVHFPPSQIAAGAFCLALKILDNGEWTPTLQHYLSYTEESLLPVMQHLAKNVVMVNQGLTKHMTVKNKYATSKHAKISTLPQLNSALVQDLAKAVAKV

One may read the IC50 as the point on the concentration scale where inhibition reaches its midpoint. Read a low IC50 as inhibition by little substance. As usually defined, the IC90 is the point of the concentration-response curve where the effect stands at 90%. High values mean a need for much substance, low ones an effect from little substance. `CC(=O)Nc1ccc(Cl)c(C(=O)c2sc(Nc3ccc(N4CCN(C)CC4)cc3)nc2N)c1Cl` [C(86), N-(3-{4-Amino-2-[4-(4-methyl-piperazin-1-yl)-phenylamino]-thiazole-5-carbonyl}-2,4-dichloro-phenyl)-acetamide]: the IC50 is 12000 nM in the assay on Saos-2, 6500 nM in the assay with HCT116 and 14000 nM in the assay with U2-OS. Also, the results for the IC90 with Saos-2, in the assay with HCT116 and with U2-OS were 22000 nM, 17000 nM and 22000 nM, respectively. The figures for the Ki (in assay [1]; at CDK2/cyclin A; in assay [2]) were 1310 nM, 1100 nM and 15 nM, respectively.
Turning to `Cc1cc([N+](=O)[O-])sc1C(=O)c1sc(Nc2ccc(S(N)(=O)=O)cc2)nc1N` [C(95), 4-[4-Amino-5-(3-methyl-5-nitro-thiophene-2-carbonyl)-thiazol-2-ylamino]-benzenesulfonamide], the results for the half-inhibitory concentration (IC50) in the assay on Saos-2, with HCT116 and in the assay with U2-OS were 1800 nM, 1500 nM and 3900 nM, respectively. In addition, the concentration for an effect of 90% (IC90) in the assay on Saos-2 was 4500 nM; with HCT116, 3000 nM; in the assay on U2-OS, 5800 nM. Further, the Ki is 75 nM in assay [1], less than 50 nM on CDK2/cyclin A and 25 nM in assay [2].
As for `CN1CCN(c2ccc(Nc3nc(N)c(C(=O)c4c(Cl)cc(Br)c(N)c4Cl)s3)cc2)CC1` [C(96), (3-Amino-4-bromo-2,6-dichloro-phenyl)-{4-amino-2-[4-(4-methyl-piperazin-1-yl)-phenylamino]-thiazol-5-yl}-methanone], the IC50 in the assay on Saos-2 came out at 4200 nM; in the assay with HCT116, 18000 nM; in the assay with U2-OS, 8000 nM. For the same compound, the IC90 with Saos-2 is 10000 nM; in the assay on HCT116 it was greater than 25000 nM; in the assay on U2-OS, 12000 nM. Further, the Ki is 231 nM in assay [1], 324 nM on CDK2/cyclin A and 1.5 nM in assay [2]. Further, the “% inhibition of growth in parentheses after >25” value in the assay with HCT116 (concentration not given) is on record as “(82%)”.
For `CC(=O)N1CCN(c2ccc(Nc3nc(N)c(C(=O)c4sccc4C)s3)cc2)CC1` [C(98), 2-[4-(1-Acetyl-piperazine-4-yl)-phenylamino]-4-amino-thiazol-5-yl-(3-methyl-thiophen-2-yl)-methanone], the values for the IC50 in the assay on Saos-2, with HCT116 and in the assay on U2-OS were 2700 nM, 1300 nM and 2400 nM, respectively. Moreover, the IC90 with Saos-2 was found to be 5300 nM; with HCT116 it was 2900 nM; in the assay with U2-OS, 5200 nM. Also, the Ki in assay [1] was 720 nM; on CDK2/cyclin A, 565 nM; in assay [2] it was 27 nM.
With `Nc1nc(Nc2ccc(S(N)(=O)=O)cc2)sc1C(=O)c1c(F)cccc1C(F)(F)F` [C(99), 4-[4-Amino-5-(2-fluoro-6-trifluoromethyl-benzoyl)-thiazol-2-ylamino]-benzenesulfonamide], the values for the IC50 with Saos-2, with HCT116 and in the assay on U2-OS were 1100 nM, 880 nM and 4000 nM, respectively. In addition, the 90% effect concentration (IC90) turned out to be 2900 nM in the assay with Saos-2, 2700 nM in the assay with HCT116 and 8000 nM with U2-OS. In addition, the Ki stood at 40 nM in assay [1], 39.5 nM on CDK2/cyclin A and 16.4 nM in assay [2].
Consider `NC(=O)c1ccc(Nc2nc(N)c(C(=O)c3c(F)cccc3F)s2)cc1` [C(102), 4-[4-Amino-5-(2,6-difluoro-benzoyl)-thiazol-2-ylamino]-benzamide], for which the IC50 was 880 nM in the assay with Saos-2, 1100 nM in the assay with HCT116 and 3100 nM in the assay with U2-OS. Moreover, the IC90 in the assay on Saos-2 was determined as 2200 nM; in the assay on HCT116, 2400 nM; in the assay with U2-OS, 5400 nM. The Ki in assay [1] stood at 17 nM; on CDK2/cyclin A it was 49 nM; in assay [2], 21 nM.
As to `CNS(=O)(=O)c1ccc(Nc2nc(N)c(C(=O)c3sccc3C)s2)cc1` [C(114), 4-[4-Amino-5-(3-methyl-thiophene-2-carbonyl)-thiazol-2-ylamino]-N-methyl-benzenesulfonamide], the 50% inhibitory concentration (IC50) in the assay with Saos-2 came out at 1300 nM; in the assay with HCT116, 1100 nM; with U2-OS, 3000 nM. Further, the IC90 was determined as 4800 nM with Saos-2, 2800 nM with HCT116 and 5200 nM in the assay on U2-OS. Also, the results for the Ki (in assay [1]; on CDK2/cyclin A; in assay [2]) were 28 nM, 8.5 nM and 21 nM, respectively.
Turning to `CN1CCN(c2ccc(Nc3nc(N)c(C(=O)c4c(F)cccc4F)s3)cc2)CC1=O` [C(118), 4-{4-[4-Amino-5-(2,6-difluoro-benzoyl)-thiazol-2-ylamino]-phenyl}-1-methyl-piperazin-2-one], the IC50 with Saos-2 was 940 nM; in the assay with HCT116, 640 nM; in the assay with U2-OS, 2400 nM. Further, the IC90 stood at 1500 nM with Saos-2, 1400 nM in the assay on HCT116 and 5000 nM in the assay with U2-OS. Also, the Ki was determined as 97 nM in assay [1], 191 nM on CDK2/cyclin A and 10.3 nM in assay [2].
For the compound `Nc1nc(Nc2ccc(N3CCSCC3)cc2)sc1C(=O)c1c(F)cccc1F` [C(119), [4-Amino-2-(4-thiomorpholin-4-yl-phenylamino)-thiazol-5-yl]-(2,6-difluoro-phenyl)-methanone], the IC50 in the assay with Saos-2 was 7000 nM; in the assay on HCT116, 4000 nM; with U2-OS, 7800 nM. For the same compound, the values for the IC90 in the assay on Saos-2, with HCT116 and in the assay with U2-OS were 13000 nM, 7000 nM and 12000 nM, respectively. In addition, the Ki in assay [1] is 247 nM; at CDK2/cyclin A it was 86 nM; in assay [2] it was 24 nM.
For the compound `Nc1nc(Nc2ccc(N3CCNC(=O)C3)cc2)sc1C(=O)c1c(F)cccc1F` [C(120), 4-{4-[4-Amino-5-(2,6-difluoro-benzoyl)-thiazol-2-ylamino]-phenyl}-piperazin-2-one], the IC50 worked out at 2600 nM in the assay with Saos-2, 3500 nM in the assay on HCT116 and 5700 nM in the assay on U2-OS. The concentration for an effect of 90% (IC90) with Saos-2 came out at 5200 nM; in the assay with HCT116 it was 6000 nM; with U2-OS it was 11000 nM. The Ki in assay [1] turned out to be 62 nM; on CDK2/cyclin A, 80 nM; in assay [2], 10.9 nM.
With `Nc1ccc(Cl)c(C(=O)c2sc(Nc3ccc(N4CCNCC4)cc3)nc2N)c1Cl` [H(2), (3-Amino-2,6-dichloro-phenyl)-[4-amino-2-(4-piperazin-1-yl-phenylamino)-thiazol-5-yl]-methanone Trihydrochloride], the IC50 with Saos-2 amounted to 13000 nM; with HCT116 it was 15000 nM; in the assay on U2-OS, 16000 nM. Moreover, the results for the IC90 in the assay with Saos-2, in the assay on HCT116 and with U2-OS were 22000 nM, 25000 nM and 21000 nM, respectively. In addition, the Ki in assay [1] is 361 nM; on CDK2/cyclin A, 474 nM; in assay [2], 3.6 nM.
With `Nc1nc(Nc2ccc(N3CCNCC3)cc2)sc1C(=O)c1c(Cl)cccc1Cl` [H(3), [4-Amino-2-(4-piperazin-1-yl-phenylamino)-thiazol-5-yl]-(2,6-dichloro-phenyl)-methanone], the figures for the IC50 in the assay on Saos-2, in the assay on HCT116 and with U2-OS were 1800 nM, 880 nM and 3500 nM, respectively. In addition, the IC90 amounted to 3000 nM in the assay on Saos-2, 2400 nM with HCT116 and 5800 nM in the assay with U2-OS. The figures for the Ki (in assay [1]; on CDK2/cyclin A; in assay [2]) were 472 nM, 405 nM and 2.4 nM, respectively.
In the case of `Nc1nc(Nc2ccc(N3CCNCC3)cc2)sc1C(=O)c1c(Cl)cc(Cl)cc1Cl` [J(1), [4-Amino-2-(4-piperazin-1-yl-phenylamino)-thiazol-5-yl]-(2,4,6-trichloro-phenyl)-methanone], the IC50 in the assay on Saos-2 came out at 1000 nM; with HCT116 it was 1300 nM; in the assay with U2-OS, 3500 nM. For the same compound, the 90% effect concentration (IC90) in the assay with Saos-2 was 5900 nM; in the assay with HCT116 it was 3000 nM; with U2-OS, 5900 nM. Moreover, the Ki in assay [1] was determined as 732 nM; at CDK2/cyclin A it was 452 nM; in assay [2], 2.3 nM.
